Key:
[1] = tested on: Caspase 8 in A2780 cell line; experiment: Caspase 8 activity assay; assay type: cell-based, human; conditions: A2780, IC50, 48 h, normalized to DMSO
Description: The A2780 cell line was seeded in 25 cm^2 T-flasks at a density of 2 × 10^6 cells/T-flasks. […] After that, cells were detached using cold PBS 1× and a cell scraper and centrifuged at 500 × g for 5 min. Then, we followed the instructions provided by the manufacturer of the Caspase-8 assay kit (Abcam). The data was obtained by measuring the absorbance of each sample at 400 nm and each value was normalized to the value of the DMSO sample.

A2780 cell line = experiment: Mitochondrial membrane potential (ΔΨM), JC-1 flow cytometry; assay type: cell-based, human; conditions: A2780, IC50, 48 h, JC-1 red/green ratio vs DMSO
Description: ΔΨM was evaluated in the A2780 cell line using the JC-1 Mitochondrial Membrane Potential Assay Kit (Abnova, Taipei, Taiwan). Cells were seeded at a density of 2 × 10^5 cells/well in 6-well plates and incubated for 24 h. […] After an incubation of 48 h, the cells were washed with PBS 1×, detached with TE, and incubated with JC-1 in RPMI medium without phenol red + 5% (v/v) FBS for 20 min at 37 °C. The cells were then resuspended in the same medium and the ΔΨM was evaluated with the Attune acoustic focusing flow cytometer (ThermoFisher Scientific) and respective software.

plasmidic DNA (pUC18) = experiment: Interaction with pDNA and cleavage mechanism (agarose gel electrophoresis); assay type: biochemical; conditions: 25 μM complex with NaN3, catalase or D2O, 24 h
Description: E. coli transformed with pUC18 was inoculated onto a plate of LB-agar medium (Luria–Bertani) (Applichem, Darmstadt, Germany) supplemented with ampicillin (100 μg/mL) (Bioline, London, UK) and incubated for 24 h at 37 °C. Then, the E. coli cells were inoculated in liquid LB medium, supplemented with ampicillin (100 μg/mL) for 24 h at 37 °C. After incubation, the plasmid DNA (pDNA) was extracted by using the Kit NZYSpeedy Miniprep, following the instructions provided by the manufacturer.
The extracted pDNA (100 ng) was incubated with 5, 25, 50, and 100 μM concentrations of complexes 2–4, with DMSO 0.1% or only pUC18. The solutions were prepared in 5 mM Tris–HCl, 50 mM NaCl, pH 7.02, buffer, and incubated for 24 h at 37 °C. A control of pDNA cleaved with Hind III endonuclease was also used. Electrophoresis was performed in 0.8% (w/v) agarose gel (NZYtech) in TAE buffer at 70 V constant voltage for 1 h. Electrophoresis gel image was acquired in the Gel Doc EZ Imager (Bio-Rad).
The pDNA (100 ng) was incubated with 25 μM of complexes 2–4, in the absence or presence of 50 μM of NaN3, 4 units of catalase from the bovine liver (2000–5000 U/mg, Sigma-Aldrich, Spain), and 25 mM of D2O. The solutions were prepared in 5 mM Tris–HCl, 50 mM NaCl, pH 7.02, buffer, and incubated for 24 h at 37 °C. A control of pDNA cleaved with Hind III endonuclease was also used. […]

A2780 cells = experiment: Cellular viability after 12 h at 37 °C versus 4 °C; assay type: cell-based, human; conditions: A2780, 12 h, 20× IC50
[2] = tested on: BAX and BCL-2 proteins in A2780 cell line; experiment: BAX and BCL-2 protein expression by Western blot; assay type: cell-based, human; conditions: A2780, IC50, 48 h, normalized against DMSO control (=1)
Description: The quantification of BAX and BCL-2 protein expression in the A2780 cell line incubated with different cobalt complexes in the A2780 cell line was determined by WB. For this, the A2780 cell line was cultivated in 25 cm^2 T-flasks at a density of 2 × 10^6 cells/mL and incubated for 24 h in the conditions described above. […] After 48 h incubation, the cells were washed and collected using cold PBS 1× and a cell scraper. The samples were centrifuged for 5 min at 700 × g and resuspended in fresh lysis buffer (150 mM NaCl, 5 mM ethylenediaminetetraacetic acid (EDTA), 50 mM Tris–HCl at pH 8.0, 2% (v/v) NP-40, 1× phosphatase inhibitors (PhosStop, Roche), 1× Protease inhibitors (complete ULTRA tablets, Mini, easypack, Roche), 1 mM phenylmethylsulfonylfuoride (PMSF) and 0.1% 1,4-dithiothreitol (v/v), DTT) and then storage at −80 °C for 2 h or until required. Cells were submitted to 5 ultrasound cycles and centrifuged at 1000 × g for 5 min. The total protein extract (supernatant) was quantified with Pierce Protein Assay Reagent (ThermoFisher Scientific) at 660 nm. […]
The membranes were incubated with WesternBright ECL subtract (Advansta) for 5 min in the dark and the film was exposed to the membranes in a dark room. […] Protein quantification was made by densitometry with ImageJ software.

Structure (SMILES) | caspase 8 activity relative to control [1] | mitochondrial membrane potential (ΔΨM) change (A2780 cell line) | pDNA cleavage mechanism (plasmidic DNA (pUC18)) | cytotoxic activity at 4 °C compared to 37 °C (A2780 cells) | BAX/BCL-2 ratio [2]
Cc1ccnc(-c2cc(C)ccn2)c1.O=S(=O)([O-])C(F)(F)F.O=S(=O)([O-])C(F)(F)F.[Co+3].c1cc[cH-]c1.c1ccc(P(c2ccccc2)c2ccccc2)cc1 [Complex 2, [Co(η^5-C5H5)(PPh3)(Me2bipy)][(CF3SO3)2]] | 2 × | low (without statistical significance) ΔΨM | cleave pDNA through singlet oxygen | significantly lose some of their cytotoxic activity at 4 °C | 
O=S(=O)([O-])C(F)(F)F.O=S(=O)([O-])C(F)(F)F.[Co+3].c1cc[cH-]c1.c1ccc(P(c2ccccc2)c2ccccc2)cc1.c1cnc2c(c1)ccc1cccnc12 [Complex 3, [Co(η^5-C5H5)(PPh3)(phen)][(CF3SO3)2]] |  | low (without statistical significance) ΔΨM | cleave pDNA through singlet oxygen | significantly lose some of their cytotoxic activity at 4 °C | 2.8
Nc1cc2cccnc2c2ncccc12.O=S(=O)([O-])C(F)(F)F.O=S(=O)([O-])C(F)(F)F.[Co+3].c1cc[cH-]c1.c1ccc(P(c2ccccc2)c2ccccc2)cc1 [Complex 4, [CoCp(PPh3)(NH2phen)][(CF3SO3)2]] | 1.6 × | an increase in ΔΨM was observed |  |  | < 1

Source: publication PMC10988555, “Exploiting Co(III)-Cyclopentadienyl Complexes To Develop Anticancer Agents” (Inorganic Chemistry, 2024)
